This note sets out measurements from EP0009655A1, “6-Amino substituted N-pyrrolyl-3-pyridazine amines, their preparation, and pharmaceutically antihypertensive compositions containing them” (priority 1978, dated 1980).

For one series, the system named is renal hypertensive dogs. The series can be described thus: Antihypertensive activity in conscious renal hypertensive dogs (systolic arterial blood pressure, indirect method on the tail). It is filed as in vivo. As to conditions: for maximum systolic blood pressure drop / time of maximum systolic blood pressure drop / blood pressure drop after seven hours: dose of 2 mg/kg; for blood pressure drop after seven hours: seven hours after administration. As to the method: The antihypertensive activity of the compounds of the invention was shown in representative tests on spontaneous hypertensive rats and in renal hypertensive dogs. In representative experiments with renal hypertensive dogs, effective amounts(1 to 4 mg/kg) of compounds of examples 3, 4, 5, 6, 8, 13, 14 and 15 were administered p.o. to the conscious hypertensive animals. The systolic arterial blood pressure was measured by the indirect method on the tail before and 1, 3, 5 and 7 hours after treatment.
The drop of the systolic blood pressure ranged between 20 and 70 mm Hg, depending on the specific compound tested and on the time at which the blood pressure was observed. In general the antihypertensive effect started about 3 hours after treatment and the maximum effect was still persistent 7 hours after treatment.

The test system of series [1] is spontaneous hypertensive rats (MHR: Milano hypertensive rats). The series is described as follows: Antihypertensive activity in spontaneous hypertensive rats (systolic blood pressure). As to conditions: dose of 5 mg/kg. It counts as in vivo.
Series [2] in a line: Acute toxicity, LD50 p.o. As to conditions: mouse, in vivo, po.

With `Cc1ccc(C)n1Nc1ccc(N2CCOCC2)nn1` [Example 3, N-(2,5-Dimethyl-1H-pyrrol-1-yl)-6-morpholino-3-pyridazineamine], in the series with renal hypertensive dogs (1 mg/kg p.o.), the “drop of the systolic blood pressure” value is 50 mm Hg. Besides, the “drop of the systolic blood pressure” value in the series with renal hypertensive dogs (4 mg/kg p.o.) amounted to 70 mm Hg. Further, in the series with renal hypertensive dogs, the “maximum systolic blood pressure drop” value is recorded as 52 mm Hg, the “time of maximum systolic blood pressure drop” value was “about three” and the “blood pressure drop after seven hours” value came to 48 mm Hg. The blood pressure drop in series [1] is 38 mm Hg. Besides, the median lethal dose (LD50) (in general, the dose expected to kill half of the subjects tested) in series [2] is roughly 800 mg/kg.

For `NNc1nncc2ccccc12` [hydralazine, 1-hydrazinophthalazine, reference compound], in the series on renal hypertensive dogs, the “maximum systolic blood pressure drop” value came to 41 mm Hg, the “time of maximum systolic blood pressure drop” value is recorded as “about one” and the “blood pressure drop after seven hours” value was determined as 29 mm Hg.
